What was measured:
Assay type in all cases: in vivo
[1] = test system: Diabrotica balteata; test: Diabrotica balteata (corn root worm), sprayed maize sprouts, L2 larvae; conditions: 96 h, spray on maize sprouts, 4 days after infestation, read-out: effect in at least one of the two categories (mortality or growth inhibition)
Method: Diabrotica balteata (Corn Root Worm)
Maize sprouts placed onto an agar layer in 24-well microtiter plates were treated with aqueous test solutions prepared from 10′000 ppm DMSO stock solutions by spraying. After drying, the plates were infested with L2 larvae (6 to 10 per well). The samples were assessed for mortality and growth inhibition in comparison to untreated samples 4 days after infestation. The following compounds gave an effect of at least 80% in at least one of the two categories (mortality or growth inhibition) at an application rate of 200 ppm: A1

[2] = test system: Euschistus heros; test: Euschistus heros (neotropical brown stink bug), sprayed soybean leaves, N2 nymphs; conditions: 120 h, spray on soybean leaves, 5 days after infestation, read-out: effect in at least one of the two categories (mortality or growth inhibition)
Method: Euschistus heros (Neotropical Brown Stink Bug)
Soybean leaves on agar in 24-well microtiter plates were sprayed with aqueous test solutions prepared from 10′000 ppm DMSO stock solutions. After drying the leaves were infested with N2 nymphs. The samples were assessed for mortality and growth inhibition in comparison to untreated samples 5 days after infestation.
The following compounds gave an effect of at least 80% in at least one of the two categories (mortality or growth inhibition) at an application rate of 200 ppm: A1, A2

[3] = test system: Plutella xylostella; test: Plutella xylostella (diamond back moth), artificial diet, L2 larvae; conditions: 120 h, 5 days after infestation, read-out: effect in at least one of the two categories (mortality or growth inhibition)
Method: (§1) Plutella xylostella (Diamond Back Moth)
(§2) 24-well microtiter plates with artificial diet were treated with aqueous test solutions prepared from 10′000 ppm DMSO stock solutions by pipetting. After drying, the plates were infested with L2 larvae (10 to 15 per well). The samples were assessed for mortality and growth inhibition in comparison to untreated samples 5 days after infestation.
The following compounds gave an effect of at least 80% in at least one of the two categories (mortality or growth inhibition) at an application rate of 200 ppm: A1

[4] = test system: Spodoptera littoralis; test: Spodoptera littoralis (Egyptian cotton leaf worm), sprayed cotton leaf discs, L1 larvae; conditions: foliar, 72 h, spray on cotton leaf discs, 3 days after infestation, read-out: control (mortality, anti-feeding effect or growth inhibition)
Method: Spodoptera littoralis (Egyptian Cotton Leaf Worm)
Cotton leaf discs were placed onto agar in 24-well microtiter plates and sprayed with aqueous test solutions prepared from 10′000 ppm DMSO stock solutions. After drying the leaf discs were infested with five L1 larvae. The samples were assessed for mortality, anti-feeding effect, and growth inhibition in comparison to untreated samples 3 days after infestation. Control of Spodoptera littoralis by a test sample is given when at least one of the categories mortality, anti-feedant effect, and growth inhibition is higher than the untreated sample.

[5] = test system: Tetranychus urticae; test: Tetranychus urticae (two-spotted spider mite) feeding/contact activity; conditions: foliar, 192 h, spray on bean leaf discs, mixed population (mobile stages), 8 days after infestation
Method: Tetranychus urticae (Two-Spotted Spider Mite): Feeding/Contact Activity
Bean leaf discs on agar in 24-well microtiter plates were sprayed with aqueous test solutions prepared from 10′000 ppm DMSO stock solutions. After drying the leaf discs were infested with a mite population of mixed ages. The samples were assessed for mortality on mixed population (mobile stages) 8 days after infestation.

[6] = test system: Thrips tabaci; test: Thrips tabaci (onion thrips) feeding/contact activity; conditions: foliar, 144 h, spray on sunflower leaf discs, mixed ages, 6 days after infestation
Method: Thrips tabaci (Onion Thrips) Feeding/Contact Activity
Sunflower leaf discs were placed on agar in 24-well microtiter plates and sprayed with aqueous test solutions prepared from 10′000 ppm DMSO stock solutions. After drying the leaf discs were infested with a thrips population of mixed ages. The samples were assessed for mortality 6 days after infestation.

[7] = test system: Plutella xylostella; test: Plutella xylostella (diamond back moth), artificial diet, eggs; conditions: 192 h, 8 days after infestation, read-out: effect in at least one of the two categories (mortality or growth inhibition)
Method: as §1
as §2, with “drying, Plutella eggs were pipetted through a plastic stencil onto a gel blotting paper and” for “drying,”, “plate was closed” for “plates were infested”, “it.” for “L2 larvae (10 to 15 per well).”, “8” for “5”
The following compounds gave an effect of at least 80% in at least one of the two categories (mortality or growth inhibition) at an application rate of 200 ppm: A2

COC(=O)N(C(=O)c1ccc(C2=NO[C@@](c3cc(Cl)c(F)c(Cl)c3)(C(F)(F)F)C2)cc1C)C1CN(S(=O)(=O)C(F)F)C1 [A1, methyl N-[4-[(5S)-5-(3,5-dichloro-4-fluoro-phenyl)-5-(trifluoromethyl)-4H-isoxazol-3-yl]-2-methyl-benzoyl]-N-[1-(difluoromethylsulfonyl)azetidin-3-yl]carbamate]
≥ 80%: percent effect (mortality or growth inhibition) at 200 ppm [1] | percent effect (mortality or growth inhibition) at 200 ppm [2] | percent effect (mortality or growth inhibition) at 200 ppm [3] | percent control (mortality, anti-feedant effect or growth inhibition) at 200 ppm [4] | mortality at 200 ppm [5] | mortality at 200 ppm [6]

CCOC(=O)N(C(=O)c1ccc(C2=NO[C@@](c3cc(Cl)c(F)c(Cl)c3)(C(F)(F)F)C2)cc1C)C1CN(S(=O)(=O)C(F)F)C1 [A2, ethyl N-[4-[(5S)-5-(3,5-dichloro-4-fluoro-phenyl)-5-(trifluoromethyl)-4H-isoxazol-3-yl]-2-methyl-benzoyl]-N-[1-(difluoromethylsulfonyl)azetidin-3-yl]carbamate]
≥ 80%: percent effect (mortality or growth inhibition) at 200 ppm [2] | percent effect (mortality or growth inhibition) at 200 ppm [7] | percent control (mortality, anti-feedant effect or growth inhibition) at 200 ppm [4]

Reference: patent US20210340131A1, “PESTICIDALLY ACTIVE ISOXAZOLINE D[…] AMIDE GROUP AND AN AZETIDINE SULFONE GROUP” (SYNGENTA CROP PROTECTION AG, priority 2018, published 2021)
